PubChem BioAssay (NCI)
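48-hour exposure; five concentrations; linearly interpolated endpoints. GI50: concentration for 50% inhibition of growth. TGI marks complete inhibition of growth.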

Experiments:
Assay in all cases: DTP human tumour cell line panel, 48 h
[1] = test system: RPMI-8226 leukemia
[2] = test system: OVCAR-4 ovarian
[3] = test system: CCRF-CEM leukemia
[4] = test system: HCT-116 colon
[5] = test system: NCI/ADR-RES ovarian
[6] = test system: NCI-H23 lung
[7] = test system: MDA-MB-231 breast
[8] = test system: 786-0 renal
[9] = test system: OVCAR-8 ovarian
[10] = test system: SNB-19 CNS

| Compound | TGI [1] | TGI [2] | TGI [3] | TGI [4] | TGI [5] | TGI [6] | TGI [7] | TGI [8] | TGI [9] | TGI [10] | GI50 [1] | GI50 [2] | GI50 [3] | GI50 [4] | GI50 [5] | GI50 [6] | GI50 [7] | GI50 [8] | GI50 [9] | GI50 [10] |
| --- | --- | --- | --- | --- | --- | --- | --- | --- | --- | --- | --- | --- | --- | --- | --- | --- | --- | --- | --- | --- |
| COc1cc(-c2oc3c(OC)c(O)c(OC)c(O)c3c(=O)c2OC)cc(OC)c1OC | > 100 µM | > 100 µM | > 100 µM | > 100 µM | > 100 µM | > 100 µM | > 100 µM | > 100 µM | > 100 µM | > 100 µM | – | – | – | – | – | – | – | – | – | – |
| C=C(C)COc1ccc2c(c1)CCC1C2CCC2(C)C(=O)/C(=N/O)CC12 (stereo not given) | 7.54 µM | 9.69 µM | 6.61 µM | 3.08 µM | 21.8 µM | 15.5 µM | 4.93 µM | 13 µM | 24.1 µM | 25.4 µM | – | – | – | – | – | – | – | – | – | – |
| COc1ccc2c(c1)OCC1c3cc(OC)c4ccccc4c3OC21 (stereo not given) | > 100 µM | > 100 µM | > 100 µM | > 100 µM | 28.2 µM | 43.2 µM | 82.9 µM | > 100 µM | > 100 µM | > 100 µM | 10.6 µM | 16.5 µM | 16.2 µM | 6.65 µM | 4 µM | 4.88 µM | 8.68 µM | 26.1 µM | 44.4 µM | 23.9 µM |
| CCCCCOC(=O)Nc1nc(=O)n(C2OC(C)C(O)C2O)cc1F (stereo not given) | – | > 10000 µM | > 10000 µM | > 10000 µM | > 10000 µM | – | – | > 10000 µM | > 10000 µM | > 10000 µM | – | > 10000 µM | > 10000 µM | > 10000 µM | > 10000 µM | – | – | > 10000 µM | > 10000 µM | > 10000 µM |
| COc1cc(C2C(C(=O)NCc3ccccc3)=C(C)NC(C)=C2C(=O)NCc2ccccc2)ccc1O | 73.6 µM | > 100 µM | 98.3 µM | > 100 µM | – | 90.5 µM | – | > 100 µM | > 100 µM | > 100 µM | – | – | – | – | – | – | – | – | – | – |
| O=C1CCc2cc(Br)ccc2O1 | > 100 µM | > 100 µM | > 100 µM | > 100 µM | – | > 100 µM | – | > 100 µM | > 100 µM | > 100 µM | – | – | – | – | – | – | – | – | – | – |
| Clc1nc(Cl)c2ncn(-c3ccccc3)c2n1 | – | 24.5 µM | 6.55 µM | 4.69 µM | 3.55 µM | 4.84 µM | 24.5 µM | 18.3 µM | 19 µM | 23.9 µM | – | 10.5 µM | 2.7 µM | 2 µM | 1.85 µM | 2.14 µM | 10.7 µM | 5.51 µM | 4.4 µM | 10.7 µM |
| COc1ccc(-c2nc3sccn3c2-c2ccnc(NCCNS(=O)(=O)c3ccc(C(F)(F)F)cc3)n2)cc1 | 5.53 µM | 39.6 µM | > 100 µM | 4.61 µM | > 100 µM | 62.3 µM | 42.5 µM | 11.3 µM | > 100 µM | > 100 µM | 0.626 µM | 1.99 µM | 0.37 µM | 0.729 µM | 3.12 µM | 3.56 µM | 1.22 µM | 0.641 µM | 2.85 µM | 3.77 µM |
| Nc1nc(N)c2cc(S(=O)(=O)c3ccc4ccccc4c3)ccc2n1 | > 100 µM | – | > 100 µM | > 100 µM | > 100 µM | > 100 µM | > 31.6 µM | > 100 µM | 49.6 µM | 63.5 µM | – | – | > 100 µM | – | – | – | – | – | – | – |
| Cc1ccc(NC(=S)NNC(=S)Nc2ccc(C)cc2)cc1 | 65.3 µM | > 100 µM | – | > 100 µM | 8.52 µM | > 100 µM | > 100 µM | > 100 µM | > 100 µM | > 100 µM | 4.46 µM | > 100 µM | – | 3.81 µM | 2.55 µM | 5.98 µM | 65.4 µM | 51.3 µM | 7.95 µM | 8.36 µM |
| O=C(c1ccccc1)n1cc(/C=C/[N+](=O)[O-])c2ccccc21 | 39.9 µM | 77.3 µM | 35.1 µM | 32 µM | – | 37.6 µM | – | 39 µM | > 100 µM | 92.3 µM | – | – | – | – | – | – | – | – | – | – |
| NS(=O)(=O)c1ccc(N=Nc2c(O)[nH]c3ccc(C(=O)NCCCn4ccnc4)cc23)cc1 | > 25 µM | > 25 µM | > 25 µM | > 25 µM | > 25 µM | > 25 µM | > 25 µM | > 25 µM | > 25 µM | > 25 µM | > 25 µM | > 25 µM | > 18.5 µM | > 25 µM | > 25 µM | > 25 µM | > 25 µM | > 25 µM | > 25 µM | > 25 µM |
| CC[O-].CC[O-].O=C1C=C([O-])C(=O)c2ccccc21.O=C1C=C([O-])C(=O)c2ccccc21.[Ti+4] | > 100 µM | > 100 µM | > 100 µM | > 100 µM | – | > 100 µM | – | > 100 µM | > 100 µM | > 100 µM | 8.08 µM | > 100 µM | > 100 µM | 43.2 µM | – | 4.43 µM | – | > 100 µM | > 100 µM | > 84.5 µM |
| CCCCCCCCCCCCCCCC(=O)NS(=O)(=O)OC[C@H]1O[C@@H](n2cnc3c(N)ncnc32)[C@H](O)[C@@H]1O | 14.2 µM | 0.255 µM | 10.6 µM | 1.21 µM | 3.55 µM | 1.25 µM | 1.71 µM | – | 1.28 µM | 0.157 µM | 3.44 µM | 0.0392 µM | – | 0.0719 µM | 0.0917 µM | 0.321 µM | 0.381 µM | < 0.0491 µM | 0.3 µM | 0.0191 µM |
| CCN(N=O)C1C2(CCCC2)NC(=O)C12CCCC2 (stereo not given) | > 100 µM | > 100 µM | > 100 µM | > 100 µM | – | > 100 µM | – | > 100 µM | > 100 µM | > 100 µM | – | – | – | – | – | – | – | – | – | – |
| COc1ccc(OC(=O)N2C/C(=C\c3ccccc3)C(=O)/C(=C/c3ccccc3)C2)cc1 | 0.172 µM | 23.5 µM | 6.73 µM | 1.19 µM | – | 17.1 µM | 7.83 µM | 7.96 µM | 7.57 µM | 16.6 µM | – | – | – | – | – | – | – | – | – | – |
